Measured values reported in US20250032430A1, “USES OF RHODOQUINONE FOR THE TREATMENT OF DISEASE” (Whitehead Institute for Biomedical Research, priority 2021, published 2025).

Legend:
SDH complex [1] = assay: SDH activity assay in permeabilized purified mitochondria; assay type: biochemical, human
Description: SDH activity was examined in permeabilized purified mitochondria. The rate of succinate oxidation was measured by monitoring fumarate production over time after initiating the reaction with succinate. The rate of fumarate reduction was measured in a separate assay by monitoring the rate of succinate production over time after initiating the reaction with fumarate and NADH. […] Moreover, complex I inhibition by piericidin suppressed the fumarate reduction caused by antimycin treatment (FIG. 2I).
Isolation of Mitochondria for Biochemical Assays: 143B cells were scraped and pelleted at 1000×g for 5 minutes. Cell pellets were washed in 1×PBS and pelleted at 1000×g for 5 minutes. For tissue samples, approximately 100 mg of tissue powder was weighed out. Tissue powder or cells were re-suspended in isolation buffer (200 mM sucrose, 10 mM Tris HCl, 1 mM EGTA/Tris, pH 7.4 (adjusted with 1M HEPES)), transferred into an ice-cold glass homogenizer (VWR), and dounced with 15-30 strokes. Homogenates were transferred into tubes and spun at 600×g for 10 minutes at 4° C. Supernatants were moved to a new tube and centrifugation was repeated. Then, supernatants were moved to a new tube and pelleted at 7,000×g for 10 minutes at 4° C. Pellets were washed in isolation buffer and centrifugation was repeated. Pellets were subsequently stored at −80° C. until use.
SDH Activity Assay: Purified mitochondria were re-suspended in buffer (0.22 M Mannitol, 0.075 M Sucrose, 1 mM EDTA, 10 mM HEPES pH 7.4, and one complete Protease inhibitor tablet (Sigma)) to a concentration of 5 mg/mL and underwent 5 freeze-thaw cycles to permeabilize them. 30 μg mitochondria (6 uL) were diluted 1:10 (in 54 uL) of SDH activity assay buffer (27.5 mM KH2PO4 pH 7.4, 1.1 mM CoQ-10 (Sigma), 3.5 g/L BSA). Reactions were supplemented with DMSO, 1 μM antimycin, or 1 μM piericidin and pre-incubated at 37° C. for 10 minutes. […] Samples were centrifuged at 16,000×g for 10 minutes at 4° C. and supernatants were dried down and analyzed by LC-MS for succinate and fumarate.

SDH complex [2] = target: T1, SDH complex (Homo sapiens, UniProt O14521+P21912+P31040+Q99643); assay: SDH forward/reverse activity (succinate oxidation, fumarate reduction) by stable isotope tracing in cells; assay type: cell-based
T1 construct: endogenous in cells; host or cells: 143B cells (A5: live cells; A6: permeabilized mitochondria purified from them)
From the text: Fumarate reduction can be monitored in cells by the stable isotope tracing of either ^13C4-aspartate or ^13C5^15N2-glutamine. ^13C4-aspartate contributes to the fumarate pool via oxaloacetate and malate and so should lead to the production of ^13C4-succinate upon fumarate reduction (FIG. 2B). ^13C5^15N2-glutamine contributes to the fumarate pool through the reductive arm of the TCA cycle via glutamate, α-ketoglutarate, isocitrate, citrate, oxaloacetate, and malate. A key distinction between the two labeling approaches is that ^13C5^15N2-glutamine enriches the fumarate pool more upon antimycin treatment due to enhanced reductive carboxylation flux, whereas ^13C4-aspartate labels the fumarate pool to equivalent extents in vehicle and antimycin-treated cells (FIG. 2C). Therefore, with stable isotope tracing of ^13C4-aspartate, the level of ^13C4-succinate is a direct measure of fumarate reduction, whereas the stable isotope tracing of ^13C5^15N2-glutamine requires a ratiometric analysis of labeled succinate to labeled fumarate to normalize for differences in the extent of fumarate labeling.
To test if hypoxia triggers electron leakage onto fumarate or a net-reversal of the SDH complex, the ^13C5^15N2-glutamine tracer was utilized, which enables simultaneous quantification of the forward and reverse activities of SDH through the generation of unique isotopologues upon flux through the oxidative arm (α-ketoglutarate to succinate) compared to the reductive arm (α-ketoglutarate—via citrate—to fumarate) of the TCA cycle (FIG. 2E). In this assay, the forward (succinate oxidation) reaction was defined as the ratio of percent labeled ^13C4-fumarate to its precursor ^13C4-succinate (FIG. 2E) and the reverse (fumarate reduction) as that of percent labeled ^13C3-succinate to its precursor ^13C3-fumarate (FIG. 2E). This type of analysis can be performed when the labeling is in the steady-state, which was determined to be after 4-8 hours of incubation with ^13C5^15N2-glutamine (FIG. S2E-F). This ratiometric analysis of the succinate and fumarate isotopologues eliminates potential biases in the assay, such as higher ^13C3-fumarate labeling in antimycin-treated cells caused increased reductive carboxylation flux (FIG. S2E).
Stable isotope tracing in cells: Cells were seeded 24 hours prior to the experiment in 6-well dishes at 70% density. For stable isotope tracing of glutamine, glutamine-free DMEM (ThermoFisher) was supplemented with 2 mM ^13C5^15N2-glutamine (Sigma), 1 mM pyruvate, 5% FBS, 1% P/S, 0.1 mg/mL uridine. For stable isotope tracing of aspartate, DMEM containing 5% FBS, and 1% penicillin and streptomycin, and 0.1 mg/mL uridine (Sigma) was supplemented with the designated amount of 13C4-aspartate (Sigma) and the pH adjusted to 7.4. Uridine was left out of the media for stable isotope tracing experiments measuring nucleotide biosynthesis. Unless otherwise stated, for all experiments, cells were treated for 8 hours and metabolites were isolated as described below. Relevant compounds were added at the start of the incubation periods.

kidney = assay: Kidney tissue cultured ex vivo (quinone levels, fumarate reduction); set-up: species or system mouse; conditions: kidney cultured ex vivo for 96 hours, reduced rhodoquinone levels; succinate oxidation not affected
Description: Ex vivo stable isotope tracing on tissues: Tissues were excised from mice and washed in 1×PBS. Tissues were then cut into small pieces and placed in the appropriate stable isotope tracing media. Stable isotope tracing media contained either ^13C5^15N2-glutamine (Sigma) or 13C4-aspartate (Sigma) dissolved in DMEM, 5% FBS, 1% P/S. For ex vivo tracing experiments performed on the brain, the same media was used without FBS. Tissues were incubated for the designated time at 37° C. in a normal or hypoxia tissue culture incubator. Tissues were removed from the media, washed with PBS, and flash frozen in liquid nitrogen. Samples could be stored at −80° C. until metabolites were isolated.
Rhodoquinone-9 is a previously unknown mammalian metabolite. Without wishing to be bound by any particular theory, it is believed that since the level of rhodoquinone-9 decreases overtime when the kidney is cultured ex vivo, that cultured media is missing a component of the rhodoquinone biosynthetic pathway, and that this component may be coming from the gut microbiome.

[3] = 13C5 15N2-glutamine tracing, 143B cells

T1 sequence (P31040 43-664): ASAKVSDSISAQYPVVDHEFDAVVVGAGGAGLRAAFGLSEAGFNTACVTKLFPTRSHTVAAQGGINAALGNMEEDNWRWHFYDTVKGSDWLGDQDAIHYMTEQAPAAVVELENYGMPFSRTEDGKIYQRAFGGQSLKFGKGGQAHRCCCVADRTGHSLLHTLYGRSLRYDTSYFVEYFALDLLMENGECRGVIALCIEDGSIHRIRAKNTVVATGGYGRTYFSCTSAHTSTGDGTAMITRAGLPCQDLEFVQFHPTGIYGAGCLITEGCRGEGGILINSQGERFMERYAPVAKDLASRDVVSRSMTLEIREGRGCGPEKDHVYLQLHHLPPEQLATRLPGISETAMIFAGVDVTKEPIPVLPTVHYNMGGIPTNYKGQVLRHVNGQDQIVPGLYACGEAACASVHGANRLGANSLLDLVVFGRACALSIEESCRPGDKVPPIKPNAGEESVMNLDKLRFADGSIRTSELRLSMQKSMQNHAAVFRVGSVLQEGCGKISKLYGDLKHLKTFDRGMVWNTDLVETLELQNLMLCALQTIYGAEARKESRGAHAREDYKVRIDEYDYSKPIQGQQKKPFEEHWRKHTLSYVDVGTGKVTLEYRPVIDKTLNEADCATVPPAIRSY
T1 sequence (P21912 29-280): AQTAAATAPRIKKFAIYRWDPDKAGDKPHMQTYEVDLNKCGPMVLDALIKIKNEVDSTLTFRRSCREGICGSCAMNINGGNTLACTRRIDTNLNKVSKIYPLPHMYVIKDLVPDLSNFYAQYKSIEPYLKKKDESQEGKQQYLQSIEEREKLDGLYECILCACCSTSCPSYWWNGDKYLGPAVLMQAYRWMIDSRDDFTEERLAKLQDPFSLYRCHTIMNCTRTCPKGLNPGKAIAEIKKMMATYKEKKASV
T1 sequence (Q99643 30-169): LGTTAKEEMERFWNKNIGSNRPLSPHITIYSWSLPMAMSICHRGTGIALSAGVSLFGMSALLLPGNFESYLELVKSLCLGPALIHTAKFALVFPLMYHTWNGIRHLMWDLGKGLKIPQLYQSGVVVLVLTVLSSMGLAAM
T1 sequence (O14521 57-159): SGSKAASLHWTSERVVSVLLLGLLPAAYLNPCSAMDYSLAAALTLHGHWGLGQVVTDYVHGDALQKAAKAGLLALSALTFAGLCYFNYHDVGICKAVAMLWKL

Substance	fumarate reduction (succinate production over time) (SDH complex [1]; purified permeabilized mitochondria from WT and RquA-expressing cells, fumarate and NADH, absence of antimycin)	terminal electron acceptor use in the mammalian ETC (SDH complex [2]; rhodoquinone generated by RquA expression in cells)	fumarate reduction in the kidney (kidney)	rate of succinate oxidation versus fumarate reduction (vehicle: succinate oxidation higher) (SDH complex [1]; permeabilized purified mitochondria, 1 μM antimycin)	fumarate reduction (SDH reverse activity) (SDH complex [2]; [3])	succinate oxidation (SDH forward activity) (SDH complex [2]; [3])	conversion of fumarate into succinate (13C4-succinate production, 13C4-aspartate tracing) (SDH complex [2]; WT 143B cells, 500 nM antimycin)	ratio of isotopologues: fumarate reduction over succinate oxidation (SDH complex [2]; antimycin treatment (also hypoxia exposure))	fumarate reduction and succinate oxidation reactions (SDH complex [2]; cells lacking SDHA or SDHB)
rhodoquinone	sufficient to drive fumarate reduction	promotes the use of fumarate as a terminal electron acceptor	required for ubiquitous fumarate reduction						
antimycin				the opposite was the case	increased	decreased	robustly stimulated	approximately 4 fold	not altered
